Structures can show the parent of a compound that is named as a salt.
Experiments:
[1] = tested on: Human ARPE-19 cells; experiment: Cell viability on nitrite-modified extracellular matrix; assay type: cell-based; settings: 0.9 μM, 24 h
Experimental: To prepare the RPE ECM nitrite-treated plates, ARPE-19 cells were grown on 24-well Transwell permeable supports (Corning, Tewksbury, MA, USA) in 12-well plates for 6 to 8 weeks to allow for ECM formation. ARPE-19 cells were removed by the addition of 20 mM ammonium hydroxide buffer for 20 minutes, and the ECM was washed three times with phosphate-buffered saline (PBS). Phosphate-buffered saline was removed from the RPE-derived ECM (RPE-ECM), which was then allowed to dry. The RPE-derived ECM plates were either used immediately after drying, or stored at −20° C. for future use. RPE-derived ECM was processed further to create four experimental plating surfaces (untreated, nitrite modified, nitrite modified followed by washing, or nitrite modified followed by washing and coating with a mixture of ECM ligands).
Nitrite-modified ECM was prepared by adding 100 mM sodium nitrite to the ECM and incubating at 37° C. for 7 days. Plates were then washed at least four times with PBS and further incubated with PBS for 4 hours. Following this, the plates were washed at least two additional times to completely remove the nitrite.
Reactive nitrogen species (RNS) act together with reactive oxygen species (ROS) to damage cells, causing nitrosative stress. […]

[2] = tested on: Human ARPE-19 cells; experiment: CellTox Green cytotoxicity assay; assay type: cell-based; settings: 0.9 μM 24 h
Experimental: FIG. 14 is a graph illustrating cytotoxicity level of the compounds in human retinal pigment epithelial (RPE) cells. Human ARPE-19 cells were preincubated with 0.9 μM of compound 414 or 434 for 24 hours and then exposed to 300 μM tert-butyl hydroperoxide (TBHP) for 24 hours. Cell toxicity was measured in human ARPE-19 cells after treatment with TBHP and compounds 414 and 434.
Human ARPE-19 or primary RPE were plated in 96-well plates for 24 hours in DMEM supplemented with FBS and antibiotics. ARPE-19 cells were incubated with compound (Chemical Diversity) or exposed to tert-butyl hydroperoxide (Sigma-Aldrich, St. Louis, MO) for 24 hours. Cell cytotoxicity was measured the following day by CellTox™ Green cytotoxicity assay (Promega, Madison, WI) using a BioTek FLx800™ fluorescence reader (BioTek, Winooski, VT).
After exposure to TBHP for 24 hours and treatment with compound 414 or 434 cytotoxicity levels were measured in human ARPE-19 cells (FIG. 14).

[3] = tested on: HUVEC; experiment: TBHP-induced cell death in HUVEC; assay type: cell-based, human; settings: 0.9 μM 24 h preincubation, 400 μM TBHP 24 h
Experimental: (§1) FIG. 17 is a graph illustrating that Compound 414 and 434 protect various cell types from oxidative stress-induced cell death. Human ARPE-19, HUVEC, and C6 cells were preincubated with compound 414 and 434 for 24 hours, and then exposed to 400 μM tert-butyl hydroperoxide (TBHP) to induce cell death for 24 hours.
(§2) Human ARPE-19, HUVEC, and C6 cells were preincubated with compound 414 and 434 for 24 hours, and then exposed to 400 μM tert-butyl hydroperoxide (TBHP) to induce cell death for 24 hours.

[4] = tested on: C6 cells; experiment: TBHP-induced cell death in C6 cells; assay type: cell-based; settings: 0.9 μM 24 h preincubation, 400 μM TBHP 24 h
Experimental: as §1, §2

[5] = tested on: 661 W photoreceptor-derived cells; experiment: TBHP-induced oxidative stress in 661 W photoreceptor-derived cells; assay type: cell-based, Murine; settings: 24 h preincubation, then 300 μM TBHP 24 h, n=4
Experimental: As shown in FIGS. 20A-20B, compounds 414 and 434 protect 661 W photoreceptor-derived cells from tert-butyl […] oxidative stress. Retinal photoreceptor-derived cell line (661 W) were cultured until confluent in Dulbecco's modified eagle medium (DMEM) with 10% fetal bovine serum (FBS). Murine photoreceptor-derived cells were preincubated with 3 μMciclopirox olamine for 24 hours and then exposed to 300 μM tert-butyl hydroperoxide (TBHP) to induce cell death for 24 hours. […] Bar: standard error, n=4. student t-test was performed for statistical analysis.

[6] = tested on: Human ARPE-19 cells; experiment: Light microscopy of cell morphology after TBHP challenge; assay type: cell-based
Experimental: FIG. 1B depicts cells alone (control). FIG. 1C depicts cells treated with 300 μM TBHP. FIG. 1D depicts cells treated with 0.9 μM of ciclopirox olamine.
FIG. 8B depicts cells alone (control). FIG. 8C depicts cells treated with 300 μM TBHP. FIG. 8D depicts cells treated with 0.6 μM compound 414.
Human ARPE-19 cells morphology was examined using phase contrast on a Zeiss 510 NLO confocal laser scanning microscope with a Plan-Apochromatic 20×0.8 DIC objective.

[7] = tested on: Human lens epithelial cells; experiment: TBHP-induced cell death in lens epithelial cells; assay type: cell-based; settings: lens epithelial cells (FIG. 19); 0.9 μM 24 h, then 300 μM TBHP 24 h
Experimental: Immortalized human lens epithelial cells (CRL-11421) obtained from the American Type Culture Collection (ATCC, Manassas, VA, USA) were cultured in Eagle's minimum essential media (EMEM, ATCC) containing 10% fetal bovine serum (FBS), 100 IU/mL penicillin, 100 μg/mL streptomycin, 100 μg/mL gentamicin, and 2.5 μg/mL amphotericin B (Thermo Fisher Scientific). Human ARPE-19 cells were plated in 96-well plates for 24 hours in DMEM supplemented with FBS and antibiotics. ARPE-19 cells were preincubated with either ciclopirox olamine (Sigma), compound 414 (Chemical Diversity, San Diego, CA), compound 434 (Chemical Diversity) or no compound for 24 hours and then exposed to varying concentrations of tert-butyl hydroperoxide (TBHP; Sigma-Aldrich, St. Louis, MO) the next day for 24 hours. Cell viability was measured the following day by […] cell viability assay (Promega, Madison, WI) using a BioTek FLX800TM fluorescence reader (BioTek Winooski, VT). […] Protective effect of 0.9 μMciclopirox olamine on lens epithelial cells exposed to 300 μMTBHP.

SMILES	cell viability on nitrite-modified ECM [1]	cytotoxicity, treatment with compound alone [2]	protection from oxidative stress-induced cell death [3]	protection from oxidative stress-induced cell death [4]	cell viability after exposure to TBHP [5]	cell morphology after challenge with TBHP ([6]; 0.6 μM compound and 300 μM TBHP)	cell morphology after challenge with TBHP ([6]; 0.9 μM ciclopirox olamine and 300 μM TBHP)	cell viability after exposure to TBHP [7]
CCc1cccc(C)c1Nc1c(-c2cc(Br)ccc2O)nc2nc(C)cc(C)n12 [compound 434]	enhances cell viability	reduce cytotoxicity	Protective effects	Protective effects	significantly increased cell viability	–	–	–
CCc1cccc(C)c1Nc1c(-c2cc(Br)ccc2O)nc2ncccn12 [compound 414]	enhances cell viability	reduce cytotoxicity	Protective effects	Protective effects	significantly increased cell viability	helps to preserve a normal morphology	–	–
Cc1cc(C2CCCCC2)n(O)c(=O)c1 [ciclopirox olamine, 6-cyclohexyl-1-hydroxy-4-methyl-2(1H)-pyridone, ethanolamine salt, reference compound]	–	–	–	–	–	–	helps to preserve a normal morphology	significantly increases cell viability

From patent US12310970B2, “Compounds and methods for treating or preventing anterior segment ocular disorders and/or retinal degenerations” (YALE UNIVERSITY, priority 2018, dated 2025)
